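1) Cells in 96-well plates. 2) Compound, 48 h, 5 concentrations. 3) Linear interpolation between surrounding doses. 4) Unreached endpoint = highest concentration. GI50 marks 50% less growth. TGI: concentration producing complete growth inhibition.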
test system: DU-145 prostate; assay: DTP human tumour cell line panel, 48 h

Row | Structure (SMILES) | GI50 [µM] | TGI [µM]
1 | Cc1cn(-c2cc(C(=O)Nc3cccc(-n4ccc5c(NC(=O)c6ccccc6)nccc54)c3)cc(C(F)(F)F)c2)cn1 | 0.525 | 2.2
2 | COc1cc2cc(Oc3ccc(NC(=O)c4cc(C(F)(F)F)cc(C(F)(F)F)c4)cc3)c(C)nc2cc1OC | 4.78 | > 50
3 | O=C(Nc1cc(Cl)ccc1O)c1ccc(Nc2ccnc(C(F)(F)F)c2)cc1 | 3.25 | > 100
4 | ClCCN(CCCl)c1ccc(CNc2ccccc2)cc1 | 5.28 | > 100

test system: SK-MEL-28 melanoma; assay: DTP human tumour cell line panel, 48 h

Row | Structure (SMILES) | GI50 [µM] | TGI [µM]
5 | Cc1cn(-c2cc(C(=O)Nc3cccc(-n4ccc5c(NC(=O)c6ccccc6)nccc54)c3)cc(C(F)(F)F)c2)cn1 | 0.546 | 5.41
6 | COc1cc2cc(Oc3ccc(NC(=O)c4cc(C(F)(F)F)cc(C(F)(F)F)c4)cc3)c(C)nc2cc1OC | > 50 | > 50
7 | O=C(Nc1cc(Cl)ccc1O)c1ccc(Nc2ccnc(C(F)(F)F)c2)cc1 | 4.6 | > 100
8 | ClCCN(CCCl)c1ccc(CNc2ccccc2)cc1 | 36.8 | > 100

test system: OVCAR-5 ovarian; assay: DTP human tumour cell line panel, 48 h

Row | Structure (SMILES) | GI50 [µM] | TGI [µM]
9 | Cc1cn(-c2cc(C(=O)Nc3cccc(-n4ccc5c(NC(=O)c6ccccc6)nccc54)c3)cc(C(F)(F)F)c2)cn1 | 0.802 | 14.6
10 | COc1cc2cc(Oc3ccc(NC(=O)c4cc(C(F)(F)F)cc(C(F)(F)F)c4)cc3)c(C)nc2cc1OC | > 50 | > 50
11 | O=C(Nc1cc(Cl)ccc1O)c1ccc(Nc2ccnc(C(F)(F)F)c2)cc1 | 3.61 | > 100
12 | ClCCN(CCCl)c1ccc(CNc2ccccc2)cc1 | 25.8 | > 100

test system: CCRF-CEM leukemia; assay: DTP human tumour cell line panel, 48 h

Row | Structure (SMILES) | GI50 [µM] | TGI [µM]
13 | Cc1cn(-c2cc(C(=O)Nc3cccc(-n4ccc5c(NC(=O)c6ccccc6)nccc54)c3)cc(C(F)(F)F)c2)cn1 | 0.299 | 2.09
14 | COc1cc2cc(Oc3ccc(NC(=O)c4cc(C(F)(F)F)cc(C(F)(F)F)c4)cc3)c(C)nc2cc1OC | 2.32 | > 50
15 | O=C(Nc1cc(Cl)ccc1O)c1ccc(Nc2ccnc(C(F)(F)F)c2)cc1 | 0.807 | 5.7
16 | ClCCN(CCCl)c1ccc(CNc2ccccc2)cc1 | 4.12 | > 100

test system: MDA-MB-435; assay: DTP human tumour cell line panel, 48 h

Row | Structure (SMILES) | GI50 [µM] | TGI [µM]
17 | Cc1cn(-c2cc(C(=O)Nc3cccc(-n4ccc5c(NC(=O)c6ccccc6)nccc54)c3)cc(C(F)(F)F)c2)cn1 | 0.217 | 0.635
18 | COc1cc2cc(Oc3ccc(NC(=O)c4cc(C(F)(F)F)cc(C(F)(F)F)c4)cc3)c(C)nc2cc1OC | > 50 | > 50
19 | O=C(Nc1cc(Cl)ccc1O)c1ccc(Nc2ccnc(C(F)(F)F)c2)cc1 | 2.95 | 9.53
20 | ClCCN(CCCl)c1ccc(CNc2ccccc2)cc1 | 12 | > 100

test system: HCC-2998 colon; assay: DTP human tumour cell line panel, 48 h

Row | Structure (SMILES) | GI50 [µM] | TGI [µM]
21 | Cc1cn(-c2cc(C(=O)Nc3cccc(-n4ccc5c(NC(=O)c6ccccc6)nccc54)c3)cc(C(F)(F)F)c2)cn1 | 0.862 | 4.79
22 | COc1cc2cc(Oc3ccc(NC(=O)c4cc(C(F)(F)F)cc(C(F)(F)F)c4)cc3)c(C)nc2cc1OC | > 50 | > 50
23 | O=C(Nc1cc(Cl)ccc1O)c1ccc(Nc2ccnc(C(F)(F)F)c2)cc1 | 3.73 | > 100

test system: CAKI-1 renal; assay: DTP human tumour cell line panel, 48 h

Row | Structure (SMILES) | GI50 [µM] | TGI [µM]
24 | Cc1cn(-c2cc(C(=O)Nc3cccc(-n4ccc5c(NC(=O)c6ccccc6)nccc54)c3)cc(C(F)(F)F)c2)cn1 | 0.52 | 2.99
25 | COc1cc2cc(Oc3ccc(NC(=O)c4cc(C(F)(F)F)cc(C(F)(F)F)c4)cc3)c(C)nc2cc1OC | 1.5 | > 50
26 | O=C(Nc1cc(Cl)ccc1O)c1ccc(Nc2ccnc(C(F)(F)F)c2)cc1 | 2.02 | 7.77
27 | ClCCN(CCCl)c1ccc(CNc2ccccc2)cc1 | 1.39 | > 100

From PubChem BioAssay (NCI)
